Key:
[1] = species: Homo sapiens; test: Metabolism (NADH oxidation) by recombinant human NAD(P)H: quinone oxidoreductase (NQO1) is evaluated.; type: ADME
[2] = Selectivity ratio against NSCLC H460 and NSCLC H596 was evaluated; type: functional; design: reference not given here
[3] = system: NCI-H460; test: Cytotoxic activity against non-small cell lung cancer cell line (NSCLC) H460 was determined by using MTT colorimetric assay.; type: functional, cell-based; settings: Homo sapiens
[4] = system: NCI-H596; test: Cytotoxic activity against non-small cell lung cancer cell line (NSCLC) H596 was determined by using MTT colorimetric assay.; type: functional, cell-based; settings: Homo sapiens

Row | SMILES | Metabolism [1] [µM/min/mg] | Selectivity ratio [2] | IC50 [3] [nM] | IC50 [4] [nM]
1 | Cc1c(CO)c2c(n1C)C(=O)C=C(N(C)C)C2=O | 0.46 |  |  | 
2 | Cc1c(CO)c2c(n1C)C(=O)C=C(N1CCC1)C2=O | 0.22 |  |  | 
3 | COC1=CC(=O)c2c(cc(C)n2C)C1=O | 5.31 | 1 |  | 
4 | CCOC(=O)c1c2c(n(C)c1C)C(=O)C=C(OC)C2=O | 14.3 |  |  | 
5 | Cc1c(CO)c2c(n1C)C(=O)C=C(CN1CC1)C2=O | 2.01 | > 220 | 110 | > 25000
6 | Cc1c(CO)c2c(n1C)C(=O)C=C(N1CCOCC1)C2=O | 0.69 |  |  | 
7 | C/N=C1\C=C(O)c2c(c(CO)c(C)n2C)C1=O | 0.49 |  |  | 
8 | Cc1c(COC(N)=O)c2c(n1C)C(=O)C=C(N1CC1)C2=O |  | 1.6 |  | 
9 | Cc1c(CO)c2c(n1C)C(=O)C=C(N1CC1)C2=O | 3.35 | 510 |  | 
10 | COC1=CC(=O)c2c(c(CO)c(C)n2C)C1=O | 1.25 | 1 |  | 
11 | Cc1cc2c(n1C)C(=O)C=C(N1CC1)C2=O | 11.6 | > 26 |  | 
12 | COCC/N=C1\C=C(O)c2c(c(CO)c(C)n2C)C1=O | 0.1 |  |  | 
13 | COC1=CC(=O)c2c(c(COC(N)=O)c(C)n2C)C1=O |  | 0.3 |  | 
14 | COC1=CC(=O)c2c(c(C=O)c(C)n2C)C1=O | 8.78 |  |  | 
